Our source for the IC50 values is patent publication US6872805B2 (Bristol-Myers Squibb Company, priority 2000, dated 2005).

As a reminder, the IC50 is the concentration needed to halve the response being measured.

Sequence of HCV NS3/4A protease complex (P27958 1027-1711, stated change not applied): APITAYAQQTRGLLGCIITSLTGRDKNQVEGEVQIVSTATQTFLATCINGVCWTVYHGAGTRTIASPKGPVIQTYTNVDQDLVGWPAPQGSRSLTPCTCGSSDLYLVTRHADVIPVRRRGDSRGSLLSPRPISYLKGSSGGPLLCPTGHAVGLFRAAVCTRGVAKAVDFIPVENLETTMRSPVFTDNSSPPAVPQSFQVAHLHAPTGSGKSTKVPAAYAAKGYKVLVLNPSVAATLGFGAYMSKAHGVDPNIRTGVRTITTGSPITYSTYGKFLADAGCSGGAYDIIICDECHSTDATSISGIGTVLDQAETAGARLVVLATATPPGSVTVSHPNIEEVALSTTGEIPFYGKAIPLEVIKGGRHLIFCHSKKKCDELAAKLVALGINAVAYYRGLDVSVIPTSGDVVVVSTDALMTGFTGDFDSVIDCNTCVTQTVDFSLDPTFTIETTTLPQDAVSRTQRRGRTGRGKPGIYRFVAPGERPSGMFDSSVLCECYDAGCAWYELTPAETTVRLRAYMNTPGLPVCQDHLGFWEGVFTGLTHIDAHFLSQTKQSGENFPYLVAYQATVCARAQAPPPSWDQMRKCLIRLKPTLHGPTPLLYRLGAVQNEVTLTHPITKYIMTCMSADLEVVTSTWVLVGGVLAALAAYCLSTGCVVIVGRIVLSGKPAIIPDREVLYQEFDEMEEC
Sequence of HCV NS3/4A protease complex (P27958 1027-1711, stated change not applied): as above

One test deals with HCV NS3/4A protease complex (Hepatitis C virus genotype 1a, UniProt P27958, C1454S/C1711G). In words: Recombinant HCV NS3/4A protease complex FRET peptide assay (strain not stated). The settings on record: IC50, NS3/4A protease enzyme assay, strain not stated; activity ranges. The class given is biochemical. From the text:
The purpose of this in vitro assay was to measure the inhibition of HCV NS3 protease complexes, derived from the BMS, H77C or J416S strains, as described below, by compounds of the present invention.
Serum from an HCV-infected patient was obtained from Dr. T. Wright, San Francisco Hospital. An engineered full-length cDNA template of the HCV genome (BMS strain) was constructed from DNA fragments obtained by reverse transcription-PCR (RT-PCR) of serum RNA and using primers selected on the basis of homology between other genotype 1a strains. […] The infectious clones, H77C (1a genotype) and J4L6S (1b genotype) were obtained from R. Purcell (NIH) and the sequences are published in genebank (AAB67036, see Yanagi, M., Purcell, R. H., Emerson, S. U. and Bukh, J. Proc. Natl. Acad. Sci. U.S.A. 94(16),8738-8743 (1997); AF054247, see Yanagi, M., St Claire, M., Shapiro, M., Emerson, S. U., Purcell, R. H. and Bukh, J, Virology 244 (1), 161-172. (1998)).
The BMS, H77C and J4L6S strains were used for production of recombinant NS3/4A protease complexes. DNA encoding the recombinant HCV NS3/4A protease complex (amino acid 1027 to 1711) for these strains were manipulated as described by P. Gallinari et al. (see Gallinari P, Paolini C, Brennan D, Nardi C, Steinkuhler C, De Francesco R. Biochemistry. 38(17):5620-32, (1999)). Briefly, a three-lysine solubilizing tail was added at the 3′-end of the NS4A coding region. The cysteine in the P1 position of the NS4A-NS4B cleavage site (amino acid 1711) was changed to a glycine to avoid the proteolytic cleavage of the lysine tag. Furthermore, a cysteine to serine mutation was introduced by PCR at amino acid position 1454 to prevent the autolytic cleavage in the NS3 helicase domain. The variant DNA fragment was cloned in the pET21b bacterial expression vector and the NS3/4A complex was expressed in E. coli BL21 (DE3) following the protocol described by P. Gallinari et al. (see Gallinari P, Brennan D, Nardi C, Brunetti M, Tomei L, Steinkuhler C, De Francesco R., J Virol. 72(8):6758-69 (1998)) with modifications. Briefly, NS3/4A expression was induced with 0.5 mM IPTG for 22 hr at 20° C. […] The cells were resuspended in lysis buffer (10 mL/g) consisting of 25 mM HEPES, pH 7.5, 20% glycerol, 500 mM NaCl, 0.5% Triton-X100, 1 ug/ml lysozyme, 5 mM MgCl2, 1 ug/ml DNaseI 5 mM β-Mercaptoethanol (βME), Protease inhibitor—EDTA free, homogenized and incubated for 20 mins at 4° C. The homogenate was sonicated and clarified by ultra-centrifugation at 235000 g for 1 hr at 4° C. Imidazole was added to the supernatant to a final concentration of 15 mM and the pH adjusted to 8.0. The crude protein extract was loaded on a Ni-NTA column pre-equilibrated with buffer B (25 mM HEPES, pH 8.0, 20% glycerol, 500 mM NaCl, 0.5% Triton-X100, 15 mM imidazole, 5 mM βME). The sample was loaded at a flow rate of 1 mL/min. The column was washed with 15 column volumes of buffer C (same as buffer B except with 0.2% Triton-X100). The protein was eluted with 5 column volumes of 200 mM Imidazole in buffer.
NS3/4A protease complex-containing fractions were pooled and loaded on a desalting column Superdex-S200 pre-equilibrated with buffer D (25 mM HEPES, pH 7.5, 20% glycerol, 300 mM NaCl, 0.2% Triton-X100, 10 mM βME). Sample was loaded at a flow rate of 1 mL/min. NS3/4A protease complex-containing fractions were pooled and concentrated to approximately 0.5 mg/ml.
Regarding `C=CC1C[C@]1(NC(=O)[C@@H]1C[C@@H](Oc2cc(-c3ccccc3)nc3cc(OC)ccc23)CN1C(=O)C(NC(=O)OC(C)(C)C)C(C)(C)C)C(=O)NS(=O)(=O)c1c(C(C)C)cc(C(C)C)cc1C(C)C` (stereo partly shown) [Compound 64], the 50% inhibitory concentration (IC50) was under 5 µM.

`C=CC1CC1(NC(=O)[C@@H]1C[C@@H](Oc2cc(-c3ccccc3)nc3cc(OC)ccc23)CN1C(=O)[C@H](CC(C)C)NC(=O)OC(C)(C)C)C(=O)NS(=O)(=O)C(F)(F)F` (stereo partly shown) [Compound 84]: the IC50 is under 5 µM.

On to `COc1ccc2c(O[C@@H]3C[C@@H](C(=O)NC4(C(=O)NS(=O)(=O)C5CC5)CC45CCC5)N(C(=O)[C@@H](NC(=O)OC(C)(C)C)C(C)C)C3)cc(-c3ccccc3)nc2c1` (stereo partly shown) [Compound 138], for which the 50% inhibitory concentration (IC50) was under 5 µM.

For the molecule `CCC1C[C@]1(NC(=O)[C@@H]1C[C@@H](Oc2cc(-c3ccccc3)nc3cc(OC)ccc23)CN1C(=O)[C@@H](NC(=O)OC(C)(C)C)C(C)C)C(=O)NS(C)(=O)=O` (stereo partly shown) [Compound 1], the IC50 is under 0.5 µM.

On to `C=CC1CC1(NC(=O)[C@@H]1C[C@@H](Oc2cc(-c3ccccc3)nc3cc(OC)ccc23)CN1C(=O)[C@@H](NC(=O)OC(C)(C)C)C(C)(C)C)C(=O)NS(C)(=O)=O` (stereo partly shown) [Compound 88], for which the IC50 was under 0.5 µM.

On to `C=CC1CC1(NC(=O)[C@@H]1C[C@@H](Oc2cc(-c3ccccc3)nc3cc(OC)ccc23)CN1C(=O)[C@H](CC1CCCCC1)NC(=O)OC(C)(C)C)C(=O)NS(C)(=O)=O` (stereo partly shown) [Compound 76], for which the IC50 is under 0.5 µM.

In the case of `C=CC1C[C@]1(NC(=O)[C@@H]1C[C@@H](Oc2cc(-c3ccccc3)nc3cc(OC)ccc23)CN1C(=O)[C@@H](NC(=O)OC(C)(C)C)C(C)(C)C)C(=O)N[S+]([O-])C(C)(C)C` (stereo partly shown) [Compound 62], the IC50 is under 5 µM.

With `CCC1CC1(NC(=O)[C@@H]1C[C@@H](Oc2cc(-c3ccccc3)nc3cc(OC)ccc23)CN1C(=O)[C@H](CC1CCCCC1)NC(=O)OC(C)(C)C)C(=O)NS(=O)(=O)C1CC1` (stereo partly shown) [Compound 78], the IC50 is under 0.05 µM.

As for `C=CC1CC1(NC(=O)[C@@H]1C[C@@H](Oc2cc(-c3ccccc3)nc3cc(OC)ccc23)CN1C(=O)[C@H](CC1CCCCC1)NC(=O)OC(C)(C)C)C(=O)NS(=O)(=O)C(F)(F)F` (stereo partly shown) [Compound 81], the half-inhibitory concentration (IC50) is under 5 µM.

On to `C=CC1C[C@]1(NC(=O)[C@@H]1C[C@@H](Oc2cc(-c3ccccc3)nc3cc(OC)ccc23)CN1C(=O)[C@@H](NC(=O)OC(C)(C)C)C(C)(C)C)C(=O)NS(=O)(=O)c1ccc(OC(F)(F)F)cc1` (stereo partly shown) [Compound 66], for which the IC50 was under 0.5 µM.

For `CCC1CC1(NC(=O)[C@@H]1C[C@@H](Oc2cc(-c3ccccc3)nc3cc(OC)ccc23)CN1C(=O)[C@H](CC1CCCCC1)NC(=O)OC(C)(C)C)C(=O)NS(C)(=O)=O` (stereo partly shown) [Compound 74], the IC50 is under 5 µM.

Consider `C=CC1CC1(NC(=O)OC(C)(C)C)C(=O)N1C[C@H](Oc2cc(-c3ccccc3)nc3cc(OC)ccc23)CC1C(=O)N[C@]1(C(=O)NS(=O)(=O)C2CC2)C[C@H]1C=C` (stereo partly drawn) [Compound 97, {1S-[2S-(1R-cyclopropanesulfonylamino-carbonyl-2S-vinylcyclopropylcarbamoyl)-4R-(7-methoxy-2-phenyl-quinolin-4-yloxy)-pyrrolidine-1-carbonyl]-2-vinyl-cyclopropyl}-carbamic acid tert-butyl ester], for which the IC50 is under 0.5 µM.

Turning to `CCC1CC1(NC(=O)[C@@H]1C[C@@H](Oc2cc(-c3ccccc3)nc3cc(OC)ccc23)CN1C(=O)[C@H](CC1CCCCC1)NC(=O)OC(C)(C)C)C(=O)NS(C)(=O)=O` (stereo partly shown) [Compound 75], the IC50 was under 0.5 µM.

Regarding `C=CC1CC1(NC(=O)[C@@H]1C[C@@H](Oc2cc(-c3ccccc3)nc3cc(OC)ccc23)CN1C(=O)[C@@H](NC(=O)OC(C)(C)C)C(C)C)C(=O)NS(=O)(=O)C(F)(F)F` (stereo partly shown) [Compound 85], the IC50 is under 0.5 µM.

With `CCC1CC1(NC(=O)[C@@H]1C[C@@H](Oc2cc(-c3ccccc3)nc3cc(OC)ccc23)CN1C(=O)[C@H](CC1CCCCC1)NC(=O)OC(C)(C)C)C(=O)NS(=O)(=O)C(F)(F)F` (stereo partly shown) [Compound 80], the IC50 was under 5 µM.

For the molecule `C=CC1C[C@]1(NC(=O)[C@@H]1C[C@@H](Oc2cc(-c3ccccc3)nc3cc(OC)ccc23)CN1C(=O)[C@@H](NC(=O)OC(C)(C)C)C(C)(C)C)C(=O)NS(=O)(=O)c1ccc(-c2ccccc2)cc1` (stereo partly shown) [Compound 65], the IC50 is under 0.5 µM.

For the molecule `C=CC1CC1(NC(=O)[C@@H]1C[C@@H](Oc2cc(-c3ccccc3)nc3cc(OC)ccc23)CN1C(=O)[C@H](CC1CCCCC1)NC(=O)OC(C)(C)C)C(=O)NS(=O)(=O)C(F)(F)F` (stereo partly shown) [Compound 82], the IC50 is under 50 µM.

Consider `C=CC1CC1(NC(=O)[C@@H]1C[C@@H](Oc2cc(-c3ccccc3)nc3cc(OC)ccc23)CN1C(=O)[C@H](CC1CCCCC1)NC(=O)OC(C)(C)C)C(=O)NS(=O)(=O)C1CC1` (stereo partly shown) [Compound 79], for which the IC50 was under 0.5 µM.

For `C=CC1CC1(NC(=O)[C@@H]1C[C@@H](Oc2cc(-c3ccccc3)nc3cc(OC)ccc23)CN1C(=O)[C@@H](NC(=O)OC(C)(C)C)C(C)C)C(=O)NS(=O)(=O)C1CC1` (stereo partly shown) [Compound 92], the IC50 was under 0.05 µM.

Take `CCC1CC1(NC(=O)[C@@H]1C[C@@H](Oc2cc(-c3ccccc3)nc3cc(OC)ccc23)CN1C(=O)[C@H](CC1CCCCC1)NC(=O)OC(C)(C)C)C(=O)NS(=O)(=O)C1CC1` (stereo partly shown) [Compound 77]: the IC50 was under 50 µM.

As to `COc1ccc2c(OC3C[C@@H](C(=O)NC4(C(=O)NS(=O)(=O)C5CC5)CC45CCCC5)N(C(=O)[C@@H](NC(=O)OC(C)(C)C)C(C)(C)C)C3)cc(-c3ccccc3)nc2c1` (stereo partly shown) [Compound 139, {1-[2-(1-Cyclopropanesulfonylaminocarbonyl-spiro[2.4]hept-1-ylcarbamoyl)-4-(7-methoxy-2-phenyl-quinolin-4-yloxy)-pyrrolidine-1-carbonyl]-2,2-dimethyl-propyl}carbamic acid tert-butyl ester], the 50% inhibitory concentration (IC50) is under 5 µM.

For `C=CC1CC1(NC(=O)[C@@H]1C[C@@H](Oc2cc(-c3ccccc3)nc3cc(OC)ccc23)CN1C(=O)[C@H](CC(C)C)NC(=O)OC(C)(C)C)C(=O)NS(=O)(=O)C1CC1` (stereo partly shown) [Compound 93], the IC50 is under 0.05 µM.

`C=CC1CC1(NC(=O)[C@@H]1C[C@@H](Oc2cc(-c3ccccc3)nc3cc(OC)ccc23)CN1C(=O)[C@H](CC(C)C)NC(=O)OC(C)(C)C)C(=O)NS(C)(=O)=O` (stereo partly shown) [Compound 90]: the IC50 is under 0.5 µM.

Still in this test, the particulars now being: IC50, separated isomers of Compound 97; strain not stated.
Regarding `C=CC1CC1(NC(=O)OC(C)(C)C)C(=O)N1C[C@H](Oc2cc(-c3ccccc3)nc3cc(OC)ccc23)CC1C(=O)N[C@]1(C(=O)NS(=O)(=O)C2CC2)C[C@H]1C=C` (stereo partly drawn) [higher RF isomer, {1S-[2S-(1R-cyclopropanesulfonylamino-carbonyl-2S-vinylcyclopropylcarbamoyl)-4R-(7-methoxy-2-phenyl-quinolin-4-yloxy)-pyrrolidine-1-carbonyl]-2-vinyl-cyclopropyl}-carbamic acid tert-butyl ester], the IC50 was 0.25 µM.

For the molecule `C=CC1CC1(NC(=O)OC(C)(C)C)C(=O)N1C[C@H](Oc2cc(-c3ccccc3)nc3cc(OC)ccc23)CC1C(=O)N[C@]1(C(=O)NS(=O)(=O)C2CC2)C[C@H]1C=C` (stereo partly drawn) [lower RF isomer, {1S-[2S-(1R-cyclopropanesulfonylamino-carbonyl-2S-vinylcyclopropylcarbamoyl)-4R-(7-methoxy-2-phenyl-quinolin-4-yloxy)-pyrrolidine-1-carbonyl]-2-vinyl-cyclopropyl}-carbamic acid tert-butyl ester], the IC50 stood at 0.024 µM.
